Measurements as given in patent US20030206882A1, “Fatty acid sanitizer” (priority 2002, published 2003).

How the values were obtained:
[1] = test system: Staphylococcus aureus ATCC 6538; test: Sanitizing Efficacy/Germicidal and Detergent Sanitizing Action of Disinfectants; assay type: cell-based; conditions: summary of Table 7, heptanoic acid without coupler
Method: Sanitizing Efficacy/Germicidal and Detergent Sanitizing Action of Disinfectants—Final Action
This test measures the sanitizing efficacy against Staphylococcus aureus ATCC 6538 and Escherichia coli ATCC 11229 with a 10% milk challenge at a 15 second exposure time. A 10% milk challenge is achieved by adding 90 ml of the test formulation to 10 ml of milk, mixing, and removing 1 ml for a final volume of 99 ml.

[2] = Compatibility/stability of the aqueous composition; assay type: physicochemical; conditions: heptanoic acid alone versus with sulfonate coupler

CCCCCCC(=O)O [heptanoic acid]
antimicrobial efficacy (in words) [1]: satisfactory antimicrobial efficacy | compatibility (stability) of the composition (in words) [2]: less compatibility
